Measured values from publication PMC8945811 (2022).

How the values were obtained:
[1] = tested on: poly dA-poly dT (DNA, polymer) A/T; assay: UV melting of four-polynucleotide mixture, 260 nm; conditions: Na-cacodylate with NaCl, I = 0.1 M; pH 7.0, 1 mM EDTA; 2 μM compound, 20 μM (bp) each polynucleotide, r = 0.025; error ±0.5; per base
[2] = tested on: ATT triplex (poly dA-2poly dT) (DNA, polymer) A/T/T; assay: fluorescence titration, Scatchard; conditions: Na-cacodylate, I = 0.05 M; pH 7.0, 1 mM EDTA, 25 °C; per phosphate; per base
[3] = tested on: ATT triplex (poly dA-2poly dT) (DNA, polymer) A/T/T; assay: UV melting, 260 nm; conditions: Na-cacodylate with NaCl, I = 0.1 M, pH 7.0, 1 mM EDTA, r = 0.1, error ±0.5, per base
[4] = tested on: poly rA-poly rU (RNA, polymer) A/U; assay: UV melting of four-polynucleotide mixture, 260 nm; conditions: Na-cacodylate with NaCl, I = 0.1 M; pH 7.0, 1 mM EDTA; 2 μM compound, 20 μM (bp) each polynucleotide, r = 0.025; error ±0.5; per base
[5] = tested on: poly dA-poly dT (DNA, polymer) A/T; assay: CD titration; conditions: Na-cacodylate, I = 0.05 M; pH 7.0, 1 mM EDTA; 30 μM polynucleotide, r = 0.3; bisignate ICD, minor-groove dimers
[6] = tested on: poly dA-poly rU (DNA:RNA, polymer) A/U; assay: fluorescence titration, Scatchard; conditions: Na-cacodylate; pH 7.0, 1 mM EDTA, 25 °C; per phosphate; table footnote says I = 0.05 M; per base
[7] = tested on: ATT 26mer triplex (DNA, triplex) AAAAAAAAAAAAAAAAAAAAAAAAAA/TTTTTTTTTTTTTTTTTTTTTTTTTT/TTTTTTTTTTTTTTTTTTTTTTTTTT; assay: fluorescence titration, Scatchard; conditions: Na-cacodylate, I = 0.05 M; pH 7.0, 1 mM EDTA, 25 °C; per phosphate; per base
[8] = tested on: poly rA-poly rU (RNA, polymer) A/U; assay: CD titration; conditions: Na-cacodylate, I = 0.05 M, 30 μM polynucleotide
[9] = tested on: poly rA (RNA, polymer) A; assay: competition dialysis; conditions: Na-cacodylate, I = 0.05 M; pH 7, 1 mM EDTA, 25 °C, 24 h; 5 μM compound; bound amount only in figure
[10] = tested on: poly dA-poly rU (DNA:RNA, polymer) A/U; assay: UV melting of four-polynucleotide mixture, 260 nm; conditions: Na-cacodylate with NaCl, I = 0.1 M; pH 7.0, 1 mM EDTA; 2 μM compound, 20 μM (bp) each polynucleotide, r = 0.025; error ±0.5; per base
[11] = tested on: poly rA-poly dT (DNA:RNA, polymer) A/T; assay: UV melting of four-polynucleotide mixture, 260 nm; conditions: Na-cacodylate with NaCl, I = 0.1 M; pH 7.0, 1 mM EDTA; 2 μM compound, 20 μM (bp) each polynucleotide, r = 0.025; error ±0.5; per base
[12] = tested on: poly dT (DNA, polymer) T; assay: competition dialysis; conditions: Na-cacodylate, I = 0.05 M; pH 7, 1 mM EDTA, 25 °C, 24 h; 5 μM compound; bound amount only in figure
[13] = tested on: poly rA-poly dT (DNA:RNA, polymer) A/T; assay: ITC; conditions: Na-cacodylate, I = 0.05 M; pH 7.0, 1 mM EDTA, 25 °C; one-site fit; per base
[14] = tested on: ATT triplex (poly dA-2poly dT) (DNA, polymer) A/T/T; assay: ITC; conditions: Na-cacodylate, I = 0.05 M; pH 7.0, 1 mM EDTA, 25 °C; site with n 0.1 of two-site fit (other site 6.5, n 0.7); per base
[15] = third-strand transition (duplex transition 0)

| ΔTm [1] [°C] | log Ks [2] | ΔTm [3, 15] [°C] | ΔTm [4] [°C] | binding [5] | log Ks [6] | log Ks [7] | binding ([8]; pH 7.0, 1 mM EDTA, r = 0.3, negative ICD, intercalation) | binding [9] | ΔTm [10] [°C] | ΔTm [11] [°C] | binding ([8]; pH 7.0, bisignate ICD, major-groove dimers) | ΔTm ([3]; third-strand transition (duplex transition 21.9)) [°C] | binding [12] | log Ks [13] | log Ks [14] | Structure (SMILES) |
| --- | --- | --- | --- | --- | --- | --- | --- | --- | --- | --- | --- | --- | --- | --- | --- | --- |
| 0 | 7.6 | 43.7 | 0 | yes | 8.0 | 7.4 | yes | yes | 5.5 | – | – | – | – | – | – | Clc1c(-c2nc3ccc(C4=NCCN4)cc3s2)sc2ccccc12 |
| 2.1 | – | 27.3 | – | – | – | – | – | – | – | 1.7 | yes | – | – | – | – | c1csc(-c2ccc(-c3nc4ccc(C5=NCCN5)cc4s3)s2)c1 |
| 19.1 | – | – | 2.2 | – | – | – | – | yes | 5.6 | 1.7 | – | 31.7 | yes | 7.8 | 8.7 | c1cc2nc(-c3cncc(-c4nc5ccc(C6=NCCN6)cc5s4)c3)sc2cc1C1=NCCN1 |
